Measured values taken from US20250332173A1, “COMPOUNDS AND METHODS FOR MODULATING NUCLEIC ACID SPLICING” (REMIX THERAPEUTICS INC., priority 2021, published 2025).
Like-named read-outs stand apart in the source and are kept apart here.

Legend:
Type in all cases: cell-based, human
[1] = test system: SMN2 mRNA; assay: RT-qPCR splicing assay, SMN2 canonical junction (CJ) mRNA; details: Homo sapiens
Procedure, shortened: (§1)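 Canonical-junction transcript levels in compound-treated A673 or K562 cells (24 h, up to 10 uM final) were determined from lysates by RT-qPCR with housekeeping-gene normalization.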

[2] = test system: Target C; assay: RT-qPCR splicing assay panel, Target C canonical junction (CJ) mRNA; details: Homo sapiens
Procedure, shortened: as §1

[3] = test system: HTT; assay: HiBiT protein abundance assay, HTT HiBiT K562 cell line; details: HiBiT K562 cell line, 24 hours, top dose 10 μM; read-out: Effect on protein abundance, HTT (IC50 category)
Procedure, shortened: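 K562 knock-in lines with endogenous HiBiT-tagged target, 10,000 cells/well in IMDM + FBS, treated 24 h at 37° C with 10-point 3-fold dilutions (top 10 μM final; DMSO ≤0.25%). Lytic Nano-Glo HiBiT luminescence normalized to untagged K562 baseline and DMSO controls; IC50 = concentration giving 50% abundance via four-parameter fit.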

[4] = canonical junction qPCR panel, Table 5, read-out: SMN2 (decrease in CJ mRNA levels, IC50)
[5] = canonical junction qPCR panel, Table 5, read-out: Target C (decrease in CJ mRNA levels, IC50)
[6] = Table 5 panel, canonical junction qPCR, compound concentration having 50% response in CJ decrease, read-out: SMN2 IC50 (decrease in CJ mRNA levels)
[7] = Table 5 panel, canonical junction qPCR, compound concentration having 50% response in CJ decrease, read-out: Target C IC50 (decrease in CJ mRNA levels)

| SMILES | IC50 [1, 4] | IC50 [2, 5] | IC50 [3] | IC50 [1, 6] | IC50 [2, 7] |
| --- | --- | --- | --- | --- | --- |
| Cc1c(O)c(-c2ncc3c(=O)n([C@@H]4C[C@H]5C[C@@H]4CN5)ccc3n2)cc2cn(C)nc12 (stereo in doubt) [Compound 1446, 6-[(1R,4R,5R)-2-azabicyclo[2.2.1]heptan-5-yl]-2-(6-hydroxy-2,7-dimethyl-indazol-5-yl)pyrido[4,3-d]pyrimidin-5-one] | 100 to 1000 nM | > 10000 nM | > 10000 nM |  |  |
| CN1CCC(Nc2ccc3c(=O)n(-c4ccc5cn(C)nc5c4)cnc3c2)CC1 [Compound 203] |  |  | > 10000 nM | > 10000 nM | > 10000 nM |
| Cn1cc2ccc(-n3cnc4cc(NC5CCNCC5)ccc4c3=O)cc2n1 [Compound 204] |  |  | > 10000 nM | > 10000 nM | > 10000 nM |
| CCN1CCC(n2ccc3cc(-c4cc(C)c5nn(C)cc5c4)ncc3c2=O)CC1 [Compound 1207, 6-(2,7-dimethyl-2H-indazol-5-yl)-2-(1-ethylpiperidin-4-yl)-2,7-naphthyridin-1(2H)-one] |  |  | 1000 to 10000 nM | < 100 nM | 1000 to 10000 nM |
| Cc1cc(-c2cc3ccn(C4CCN(C5CC5)CC4)c(=O)c3cn2)cc2cn(C)nc12 [Compound 1208, 2-(1-cyclopropylpiperidin-4-yl)-6-(2,7-dimethyl-2H-indazol-5-yl)-2,7-naphthyridin-1(2H)-one] |  |  | > 10000 nM | 100 to 1000 nM | > 10000 nM |
| Cc1cc(-c2cc3ccn(C4CCN(CCO)CC4)c(=O)c3cn2)cc2cn(C)nc12 [Compound 1210, 6-(2.7-dimethyl-2H-indazol-5-yl)-2-(1-(2-hydroxyethyl)piperidin-4-yl)-2,7-naphthyridin-1(2H)-one] |  |  | 1000 to 10000 nM | 100 to 1000 nM | > 10000 nM |
| Cc1cn2cc(-c3cc4ccn(C5CCNC5)c(=O)c4cn3)cc(C#N)c2n1 (stereo not drawn) [Compound 1214] |  |  | > 10000 nM | 100 to 1000 nM | > 10000 nM |
| Cc1cn2cc(-c3ncc4c(=O)n(C5CCNC5)ccc4n3)cc(F)c2n1 (stereo not drawn) [Compound 1215] |  |  | > 10000 nM | < 100 nM | > 10000 nM |
| COc1c(-c2cc3ccn(C4CCNCC4)c(=O)c3cn2)cc2cn(C)nc2c1F [Compound 1219] |  |  | 1000 to 10000 nM | 100 to 1000 nM | > 10000 nM |
| Cc1c(O)c(-c2ncc3c(=O)n(C4CCNC4)ccc3n2)cc2cn(C)nc12 (stereo not drawn) [Compound 1222] |  |  | > 10000 nM | < 100 nM | > 10000 nM |
| Cn1cc2cc(-c3ncc4c(=O)n(C5CCNC5)ccc4n3)c(O)c(F)c2n1 (stereo not drawn) [Compound 1223] |  |  | 1000 to 10000 nM | < 100 nM | 1000 to 10000 nM |
| Cc1cn2cc(-c3ncc4c(=O)n(C5CCNC5)ccc4n3)c(O)c(C)c2n1 (stereo not drawn) [Compound 1227] |  |  | > 10000 nM | 100 to 1000 nM | > 10000 nM |
| Cc1cn2cc(-c3ncc4c(=O)n([C@@H]5CCNC5)ccc4n3)cc(F)c2n1 [Compound 1228] |  |  | > 10000 nM | < 100 nM | > 10000 nM |
| Cc1cn2cc(-c3ccc4c(=O)n(C5CCNCC5)ccc4n3)nc(C)c2n1 [Compound 1238, 2-(2,8-dimethylimidazo[1,2-a]pyrazin-6-yl)-6-(piperidin-4-yl)-1,6-naphthyridin-5(6H)-one] | 1000 to 10000 nM | > 10000 nM | > 10000 nM |  |  |
| Cc1cn2cc(-c3ccc4c(=O)n(C5CCNCC5)ccc4n3)c(O)cc2n1 [Compound 1240] | 100 to 1000 nM | > 10000 nM | > 10000 nM |  |  |

The next lines start with the values.

| IC50 [1, 4] | IC50 [2, 5] | IC50 [3] | IC50 [1, 6] | IC50 [2, 7] | SMILES |
| --- | --- | --- | --- | --- | --- |
| < 100 nM | > 10000 nM | 1000 to 10000 nM |  |  | Cc1c(O)c(-c2ncc3c(=O)n(C4CCNC4)ccc3n2)cc2cn(C)nc12 (stereo in doubt) [Compound 1439, (6R)-2-(6-hydroxy-2,7-dimethyl-indazol-5-yl)-6-pyrrolidin-3-yl-pyrido[4,3-d]pyrimidin-5-one] |
| < 100 nM | > 10000 nM | 1000 to 10000 nM |  |  | Cc1c(O)c(-c2ncc3c(=O)n(C4CCNC4)ccc3n2)cc2cn(C)nc12 (stereo in doubt) [Compound 1440, (6S)-2-(6-hydroxy-2,7-dimethyl-indazol-5-yl)-6-pyrrolidin-3-yl-pyrido[4,3-d]pyrimidin-5-one] |
| < 100 nM | 1000 to 10000 nM | 1000 to 10000 nM |  |  | Cc1c(O)c(-c2ncc3c(=O)n([C@@H]4CC5CC4CN5)ccc3n2)cc2cn(C)nc12 (stereo in doubt) [Compound 1443, 6-[(1R,4R,5R)-2-azabicyclo[2.2.1]heptan-5-yl]-2-(6-hydroxy-2,7-dimethyl-indazol-5-yl)pyrido[4,3-d]pyrimidin-5-one] |
| < 100 nM | 100 to 1000 nM | 100 to 1000 nM |  |  | Cc1c(O)c(-c2ncc3c(=O)n(C4C[C@H]5C[C@@H]4CN5)ccc3n2)cc2cn(C)nc12 (stereo in doubt) [Compound 1444, 6-[(1R,4R,5R)-2-azabicyclo[2.2.1]heptan-5-yl]-2-(6-hydroxy-2,7-dimethyl-indazol-5-yl)pyrido[4,3-d]pyrimidin-5-one] |
|  |  | 1000 to 10000 nM | < 100 nM | 1000 to 10000 nM | Cn1cc2cc(-c3ccc4c(=O)n(C5CCNCC5)cnc4c3)ccc2n1 [Compound 182] |
|  |  | 100 to 1000 nM | < 100 nM | 100 to 1000 nM | Cc1cn2nc(-c3ccc4c(=O)n(C5CCNCC5)ncc4c3)cc(C)c2n1 [Compound 186] |
|  |  | 1000 to 10000 nM | < 100 nM | 1000 to 10000 nM | Cc1cn2nc(-c3ccc4c(c3F)CCN(C3CCNCC3)C4=O)cc(C)c2n1 [Compound 188] |
|  |  | 1000 to 10000 nM | < 100 nM | 100 to 1000 nM | Cc1c(O)c(-c2ncc3c(=O)n(C4CCNCC4)cc(C)c3n2)cc2cn(C)nc12 [Compound 1191] |
|  |  | 100 to 1000 nM | < 100 nM | 100 to 1000 nM | Cc1cn2cc(-c3cc4ccn(C5CCNCC5)c(=O)c4cn3)cc(F)c2n1 [Compound 1196] |
|  |  | 100 to 1000 nM | 100 to 1000 nM | 100 to 1000 nM | Cc1cn2nc(-c3cc4ccn(C5CCNCC5)c(=O)c4cn3)cc(C)c2n1 [Compound 1198, 6-(2,8-dimethylimidazo[1,2-b]pyridazin-6-yl)-2-(piperidin-4-yl)-2,7-naphthyridin-1(2H)-one] |
|  |  | 1000 to 10000 nM | < 100 nM | 1000 to 10000 nM | Cn1cc2cc(-c3cc4ccn(C5CCNCC5)c(=O)c4cn3)c(O)c(F)c2n1 [Compound 1199] |
|  |  | 100 to 1000 nM | < 100 nM | 1000 to 10000 nM | Cc1cc(-c2cc3ccn(C4CCNCC4)c(=O)c3cn2)cc2cn(C)nc12 [Compound 1204, 6-(2,7-dimethyl-2H-indazol-5-yl)-2-(piperidin-4-yl)-2,7-naphthyridin-1(2H)-one] |
|  |  | 100 to 1000 nM | < 100 nM | 100 to 1000 nM | Cc1cn2cc(-c3cc4ccn(C5CCNCC5)c(=O)c4cn3)nc(C)c2n1 [Compound 1205, 6-(2,8-dimethylimidazo[1,2-a]pyrazin-6-yl)-2-(piperidin-4-yl)-2,7-naphthyridin-1(2H)-one] |
|  |  | 1000 to 10000 nM | < 100 nM | > 10000 nM | Cc1cc(-c2cc3ccn(C4CCN(C)CC4)c(=O)c3cn2)cc2cn(C)nc12 [Compound 1206, 6-(2,7-dimethyl-2H-indazol-5-yl)-2-(1-methylpiperidin-4-yl)-2,7-naphthyridin-1(2H)-one] |
|  |  | 100 to 1000 nM | 100 to 1000 nM | 100 to 1000 nM | Cc1cc(-c2cc3ccn(C4CCN(C5COC5)CC4)c(=O)c3cn2)cc2cn(C)nc12 [Compound 1209, 6-(2,7-dimethyl-2H-indazol-5-yl)-2-(1-(oxetan-3-yl)piperidin-4-yl)-2,7-naphthyridin-1(2H)-one-1] |
|  |  | 100 to 1000 nM | < 100 nM | 1000 to 10000 nM | Cn1cc2cc(-c3ncc4c(=O)n(C5CCNCC5)ccc4n3)c(O)cc2n1 [Compound 1211] |
|  |  | < 100 nM | < 100 nM | 100 to 1000 nM | Cn1cc2cc(-c3ncc4c(=O)n(C5CCNCC5)ccc4n3)cc(F)c2n1 [Compound 1212, 2-(7-fluoro-2-methyl-2H-indazol-5-yl)-6-(piperidin-4-yl)pyrido[4,3-d]pyrimidin-5(6H)-one] |
|  |  | 100 to 1000 nM | < 100 nM | 100 to 1000 nM | Cc1cn2cc(-c3ncc4c(=O)n([C@H]5CCNC5)ccc4n3)cc(F)c2n1 [Compound 1220] |
|  |  | 100 to 1000 nM | 100 to 1000 nM | 100 to 1000 nM | Cc1cn2cc(-c3ncc4c(=O)n(C5CCNC5)ccc4n3)cc(C#N)c2n1 (stereo not drawn) [Compound 1221] |
|  |  | 100 to 1000 nM | < 100 nM | 100 to 1000 nM | Cc1cn2cc(-c3ncc4c(=O)n(C5CCNCC5)ccc4n3)c(O)c(C)c2n1 [Compound 1225] |
| < 100 nM | 100 to 1000 nM | 100 to 1000 nM |  |  | Cn1cc2cc(-c3ccc4c(=O)n(C5CCNCC5)ccc4n3)cc(F)c2n1 [Compound 1231] |
| < 100 nM | 1000 to 10000 nM | < 100 nM |  |  | Cc1cn2cc(-c3ccc4c(=O)n(C5CCNCC5)ccc4n3)cc(C)c2n1 [Compound 1241, 2-(2,8-dimethylimidazo[1,2-a]pyridin-6-yl)-6-(piperidin-4-yl)-1,6-naphthyridin-5(6H)-one] |
| < 100 nM | 100 to 1000 nM | < 100 nM |  |  | Cn1cc2cc(-c3ccc4c(=O)n(C5CCNC6(CC6)C5)ccc4n3)c(O)cc2n1 (stereo not drawn) [Compound 1242] |
